{"source": "ChEMBL document CHEMBL1201862", "about": "“PubChem BioAssay data set” (2004)", "key": {"[1]": {"assay": "Luminescence Cell-Based Dose Retest to Confirm Inhibitors of Cancer Stem Cells. [Related pubchem assays (depositor defined):AID2717, AID2721]", "type": "functional", "settings": "Homo sapiens"}, "[2]": {"biological_target": "Heat shock protein HSP 90-alpha (Homo sapiens, UniProt P07900)", "type": "functional, organism-based"}, "[3]": {"assay": "reduction of Shn3 3'UTR-driven luciferase in osteoblasts – cell-based, Clone20 osteoblasts, firefly luciferase, cherry-picked, dose response (AID 624132)", "type": "functional"}, "[4]": {"assay": "loss of viability in HepG2 cells – cell-based, CellTiter-Glo, cherry-picked, cytotoxicity control for Shn3 inhibitor project, dose response (AID 624134)", "type": "functional"}, "[5]": {"assay": "non-specific 3'UTR reporter inhibition in Clone20-Shn3RL – cell-based, Renilla luciferase, cherry-picked, counter-screen for Shn3 inhibitor project, dose response (AID 624133)", "type": "functional"}, "[6]": {"system": "BJ", "assay": "BJ-TERT fibroblast viability loss – cell-based, RAS-independent, luminescence, dose response (AID 1933)", "type": "functional", "settings": "Homo sapiens"}, "[7]": {"system": "BJ", "assay": "cells", "type": "functional, cell-based", "settings": "Homo sapiens"}, "[8]": {"system": "BJ", "assay": "BJ-TERT-LT-ST fibroblast viability loss – cell-based, RAS-independent, luminescence, dose response (AID 1935);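 note: BJ fibroblasts immortalized with TERT plus LT and ST oncogenes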", "type": "functional", "settings": "Homo sapiens"}, "[9]": {"assay": "DRD fibroblast viability loss – cell-based, non-viral oncogenic, luminescence, dose response (AID 1934)", "type": "functional", "settings": "Homo sapiens"}, "[10]": {"assay": "HEK-293T cell viability reduction – luminescence, B-cell screen hits, cytotoxicity control for BCR NF-kB inhibitor project, dose response (AID 489021);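 note: cells exposed to compound for about 14 hours before viability readout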", "type": "functional, cell-based"}, "[11]": {"biological_target": "T1, Histone-lysine N-methyltransferase NSD2 (Homo sapiens, UniProt O96028)", "T1 sequence (O96028 whole entry)": "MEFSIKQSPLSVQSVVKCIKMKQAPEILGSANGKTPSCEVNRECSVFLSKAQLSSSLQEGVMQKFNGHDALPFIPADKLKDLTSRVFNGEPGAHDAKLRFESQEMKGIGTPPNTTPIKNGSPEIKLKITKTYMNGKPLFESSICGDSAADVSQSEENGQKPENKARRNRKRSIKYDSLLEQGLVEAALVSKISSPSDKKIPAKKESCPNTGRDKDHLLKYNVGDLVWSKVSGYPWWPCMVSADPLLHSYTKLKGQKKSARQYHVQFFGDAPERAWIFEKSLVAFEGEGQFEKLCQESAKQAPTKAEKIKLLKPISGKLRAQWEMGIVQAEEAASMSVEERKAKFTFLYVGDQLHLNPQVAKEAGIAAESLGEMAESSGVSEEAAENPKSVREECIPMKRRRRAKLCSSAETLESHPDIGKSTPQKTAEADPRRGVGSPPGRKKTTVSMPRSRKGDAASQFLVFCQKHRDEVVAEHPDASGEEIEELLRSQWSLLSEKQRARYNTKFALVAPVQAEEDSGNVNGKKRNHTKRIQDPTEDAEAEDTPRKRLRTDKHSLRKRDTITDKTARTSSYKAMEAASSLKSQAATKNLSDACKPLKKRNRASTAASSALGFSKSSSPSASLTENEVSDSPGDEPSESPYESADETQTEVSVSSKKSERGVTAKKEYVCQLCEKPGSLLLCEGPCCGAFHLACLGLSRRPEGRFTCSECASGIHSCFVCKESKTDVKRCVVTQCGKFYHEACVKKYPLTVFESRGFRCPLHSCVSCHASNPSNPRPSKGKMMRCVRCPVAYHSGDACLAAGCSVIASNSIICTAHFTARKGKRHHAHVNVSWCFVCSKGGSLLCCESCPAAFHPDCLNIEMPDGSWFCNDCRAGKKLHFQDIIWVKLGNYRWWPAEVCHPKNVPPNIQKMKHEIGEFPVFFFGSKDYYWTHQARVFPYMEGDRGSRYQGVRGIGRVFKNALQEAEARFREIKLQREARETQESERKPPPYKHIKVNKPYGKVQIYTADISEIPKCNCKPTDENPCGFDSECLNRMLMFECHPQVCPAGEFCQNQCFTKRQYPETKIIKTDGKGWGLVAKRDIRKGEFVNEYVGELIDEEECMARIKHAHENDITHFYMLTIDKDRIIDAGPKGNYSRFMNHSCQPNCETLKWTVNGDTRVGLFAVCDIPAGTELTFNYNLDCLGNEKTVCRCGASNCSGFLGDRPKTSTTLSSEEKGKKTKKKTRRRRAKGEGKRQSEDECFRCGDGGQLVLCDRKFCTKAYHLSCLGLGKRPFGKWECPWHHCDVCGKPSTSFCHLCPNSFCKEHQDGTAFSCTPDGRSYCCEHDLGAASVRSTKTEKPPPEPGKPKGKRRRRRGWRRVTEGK", "type": "biochemical"}, "[12]": {"biological_target": "T2, Carboxy-terminal domain RNA polymerase II polypeptide A small phosphatase 1 (Homo sapiens, UniProt Q9GZU7)", "T2 sequence (Q9GZU7 whole entry)": "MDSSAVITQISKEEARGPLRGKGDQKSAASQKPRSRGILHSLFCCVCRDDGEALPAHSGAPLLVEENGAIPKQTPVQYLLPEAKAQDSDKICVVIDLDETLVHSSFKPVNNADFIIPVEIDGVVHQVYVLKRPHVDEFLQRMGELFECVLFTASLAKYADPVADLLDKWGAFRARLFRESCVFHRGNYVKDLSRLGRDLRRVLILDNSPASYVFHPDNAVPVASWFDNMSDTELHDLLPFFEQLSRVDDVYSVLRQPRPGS", "assay": "CTDSP1 inhibitors, concentration-response, biochemical, absorbance readout, ultra-high-throughput screen actives (AID 540297)", "type": "functional"}, "[13]": {"biological_target": "T3, Streptokinase A (Streptococcus pyogenes serotype M1, UniProt P10520)", "T3 sequence (P10520 whole entry)": "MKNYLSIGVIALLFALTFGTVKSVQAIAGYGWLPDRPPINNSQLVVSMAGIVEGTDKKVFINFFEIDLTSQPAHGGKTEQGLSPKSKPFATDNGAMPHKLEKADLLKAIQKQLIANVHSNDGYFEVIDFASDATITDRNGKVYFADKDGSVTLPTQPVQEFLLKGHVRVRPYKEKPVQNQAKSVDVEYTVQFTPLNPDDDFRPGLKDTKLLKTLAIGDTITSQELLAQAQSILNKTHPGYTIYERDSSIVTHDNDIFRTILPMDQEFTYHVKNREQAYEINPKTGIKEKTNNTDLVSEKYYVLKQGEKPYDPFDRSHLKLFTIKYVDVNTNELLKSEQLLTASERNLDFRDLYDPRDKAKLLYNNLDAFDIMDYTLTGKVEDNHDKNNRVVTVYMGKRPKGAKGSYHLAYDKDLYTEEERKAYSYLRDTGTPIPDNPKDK", "assay": "viability-normalized secreted streptokinase activity reduction – plasminogen activation absorbance, OD405, dose response (AID 1914)", "type": "functional, Streptococcus pyogenes M1 GAS"}, "[14]": {"biological_target": "T4, Short transient receptor potential channel 4 (Mus musculus, UniProt Q9QUQ5)", "T4 sequence (Q9QUQ5 whole entry)": "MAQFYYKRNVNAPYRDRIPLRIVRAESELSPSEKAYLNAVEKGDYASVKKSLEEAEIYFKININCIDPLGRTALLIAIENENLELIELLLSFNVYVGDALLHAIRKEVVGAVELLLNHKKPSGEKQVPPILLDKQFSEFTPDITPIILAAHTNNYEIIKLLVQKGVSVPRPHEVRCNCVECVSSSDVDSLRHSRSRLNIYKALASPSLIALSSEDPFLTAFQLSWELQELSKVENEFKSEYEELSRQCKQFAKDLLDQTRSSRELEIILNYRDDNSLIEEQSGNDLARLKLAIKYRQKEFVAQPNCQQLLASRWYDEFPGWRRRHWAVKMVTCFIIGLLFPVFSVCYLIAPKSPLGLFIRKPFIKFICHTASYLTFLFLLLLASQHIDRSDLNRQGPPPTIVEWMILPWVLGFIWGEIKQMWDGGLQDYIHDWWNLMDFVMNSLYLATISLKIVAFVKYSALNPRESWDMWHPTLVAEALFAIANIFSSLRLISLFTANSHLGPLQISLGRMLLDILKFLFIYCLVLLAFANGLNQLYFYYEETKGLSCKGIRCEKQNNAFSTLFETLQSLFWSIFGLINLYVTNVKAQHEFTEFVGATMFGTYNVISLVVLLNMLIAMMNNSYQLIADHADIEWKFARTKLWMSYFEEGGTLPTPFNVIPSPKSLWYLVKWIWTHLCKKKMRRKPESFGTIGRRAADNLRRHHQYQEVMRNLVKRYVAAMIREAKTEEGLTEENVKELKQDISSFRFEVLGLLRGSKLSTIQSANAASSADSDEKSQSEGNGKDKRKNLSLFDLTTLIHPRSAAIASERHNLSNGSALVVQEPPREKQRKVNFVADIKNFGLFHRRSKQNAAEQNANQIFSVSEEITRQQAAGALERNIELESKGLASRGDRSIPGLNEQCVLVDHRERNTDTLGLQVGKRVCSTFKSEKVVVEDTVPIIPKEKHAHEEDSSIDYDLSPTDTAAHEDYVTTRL", "assay": "calcium entry via TRPC4 opening agents – cell-based, HEK293 TRPC4/mu-opioid, Fluo-4 calcium, dose response (AID 434937)", "type": "functional"}}, "note": "Calls of active or inactive are those of the source."}
{"smiles": "CC(C)N(CCC(=O)c1ccc2ccccc2c1)Cc1ccccc1", "values": [{"measurement": "AC50", "setting": "[1]", "result": "5.58 µM (active)"}, {"measurement": "AC50", "setting": "[2]", "result": "9.38 µM (active)"}, {"measurement": "AC50", "setting": "[3]", "result": "4.22 µM (active)"}, {"measurement": "AC50", "setting": "[4]", "result": "> 70 µM (inactive)"}, {"measurement": "AC50", "setting": "[5]", "result": "17.3 µM (active)"}]}
{"smiles": "CCOc1ccc(/C=C2\\SC(=S)N(CCCC(=O)NCCCN3CCOCC3)C2=O)cc1", "values": [{"measurement": "EC50", "setting": "[6]", "result": "20.1 µM (active)"}, {"measurement": "EC50", "setting": "[7]", "result": "> 150 µM (not active)"}, {"measurement": "EC50", "setting": "[8]", "result": "> 150 µM (not active)"}, {"measurement": "EC50", "setting": "[9]", "result": "> 150 µM (not active)"}, {"measurement": "IC50", "setting": "[10]", "result": "> 80 µM (inactive)"}]}
{"smiles": "Cc1c(CN(C)C)c2c(n1Cc1ccccc1)C(=O)c1ccccc1-2", "values": [{"measurement": "AC50", "setting": "[11]", "result": "8.45 µM (active)"}]}
{"smiles": "CC(C)c1c(O)ccc2c1CC[C@H]1C(C)(C)CCC[C@]21C", "note": "[TOTAROL]", "values": [{"measurement": "AC50", "setting": "[2]", "result": "3.79 µM (active)"}]}
{"smiles": "COc1ccc(-c2nnc(NC(=O)c3cccs3)s2)c(OC)c1", "values": [{"measurement": "IC50", "setting": "[12]", "result": "3.57 µM (active)"}]}
{"smiles": "Cc1cc(/C=C2\\SC(=S)N=C2O)c(C)n1-c1cccc(O)c1", "values": [{"measurement": "EC50", "setting": "[13]", "result": "> 150 µM (not active)"}, {"measurement": "AC50", "setting": "[2]", "result": "8.8 µM (active)"}]}
{"smiles": "C[Se]C[C@@H](N)C(=O)O", "values": [{"measurement": "IC50", "setting": "[12]", "result": "15 µM (active)"}]}
{"smiles": "Cc1ccc(OCC(=O)NNC(=S)NC(=O)C(C)(C)C)c(Br)c1", "values": [{"measurement": "EC50", "setting": "[14]", "result": "4.73 µM (active)"}, {"measurement": "AC50", "setting": "[2]", "result": "4.75 µM (active)"}]}
